From US9981950B2, “Triazoles as NR2B receptor inhibitors” (Janssen Pharmaceuticals, Inc., priority 2014, dated 2018)

molecular target: rat NR1/NR2B receptor (Rattus norvegicus (Rat), UniProt P35439+Q00960); assay: RRNR2BB: inhibition of specific binding to the rat NR1/NR2B receptor; details: [3H]-Ifenprodil binding, rat brain membranes, Hill-plot 2-parameter-model
How it was run: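 Washed membranes from male Wistar rat forebrain (whole brain minus cerebellum) in 5 mM Tris/1 mM EDTA pH 7.4 used in ifenprodil-site binding, 60 min at 4° C. Nonspecific binding defined with […] CP101.606; bound separated by filtration on PEI-soaked filters. IC50 from Hill plot, 2-parameter model.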

Chain of rat NR1/NR2B receptor (Q00960 27-1482, other chains not shown): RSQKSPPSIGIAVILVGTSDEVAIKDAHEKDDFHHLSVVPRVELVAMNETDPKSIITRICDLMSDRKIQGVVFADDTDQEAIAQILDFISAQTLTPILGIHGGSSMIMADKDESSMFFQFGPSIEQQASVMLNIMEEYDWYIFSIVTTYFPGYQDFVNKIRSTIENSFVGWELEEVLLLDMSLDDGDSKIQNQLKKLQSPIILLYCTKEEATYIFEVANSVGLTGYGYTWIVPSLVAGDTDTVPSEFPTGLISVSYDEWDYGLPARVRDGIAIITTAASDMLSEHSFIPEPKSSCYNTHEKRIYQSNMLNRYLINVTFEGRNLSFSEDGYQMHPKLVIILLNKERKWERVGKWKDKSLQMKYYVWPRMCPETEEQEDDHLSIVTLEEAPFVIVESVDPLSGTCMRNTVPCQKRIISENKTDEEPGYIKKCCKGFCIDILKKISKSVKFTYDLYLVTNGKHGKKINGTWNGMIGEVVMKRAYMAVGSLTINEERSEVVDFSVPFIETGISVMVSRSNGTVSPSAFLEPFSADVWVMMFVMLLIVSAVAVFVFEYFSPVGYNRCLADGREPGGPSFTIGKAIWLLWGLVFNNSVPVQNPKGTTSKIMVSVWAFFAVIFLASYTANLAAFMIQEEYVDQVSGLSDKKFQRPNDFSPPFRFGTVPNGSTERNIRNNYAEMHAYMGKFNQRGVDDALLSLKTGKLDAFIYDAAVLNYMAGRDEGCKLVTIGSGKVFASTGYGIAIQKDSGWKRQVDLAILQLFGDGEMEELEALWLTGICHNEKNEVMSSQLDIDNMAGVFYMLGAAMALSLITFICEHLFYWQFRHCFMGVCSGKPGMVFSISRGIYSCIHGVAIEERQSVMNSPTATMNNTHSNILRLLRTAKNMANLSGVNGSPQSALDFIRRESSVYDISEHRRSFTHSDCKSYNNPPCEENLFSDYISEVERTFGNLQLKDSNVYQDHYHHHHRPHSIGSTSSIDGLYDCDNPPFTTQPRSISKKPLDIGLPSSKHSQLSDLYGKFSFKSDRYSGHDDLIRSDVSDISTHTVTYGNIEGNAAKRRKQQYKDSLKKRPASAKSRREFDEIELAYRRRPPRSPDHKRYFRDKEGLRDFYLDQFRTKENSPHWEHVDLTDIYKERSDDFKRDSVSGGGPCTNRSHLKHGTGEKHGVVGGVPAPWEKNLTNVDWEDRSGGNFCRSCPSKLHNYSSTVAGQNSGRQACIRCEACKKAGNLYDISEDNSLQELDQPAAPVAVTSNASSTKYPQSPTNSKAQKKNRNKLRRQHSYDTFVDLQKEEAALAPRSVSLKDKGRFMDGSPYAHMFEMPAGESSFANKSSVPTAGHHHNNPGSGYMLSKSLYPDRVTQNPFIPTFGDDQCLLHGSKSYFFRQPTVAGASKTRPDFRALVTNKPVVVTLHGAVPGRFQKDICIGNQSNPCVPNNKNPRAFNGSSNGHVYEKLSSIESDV

Point of comparison: `CC(F)(F)c1cc(-n2cc(Cn3ccnc3N)nn2)ccc1F` [Example 114], IC50 0.51 nM. Against it:
- CC(C)c1nccn1Cc1cn(-c2ccc(Cl)cc2)nn1 [Example 23, 1-(4-Chloro-phenyl)-4-(2-isopropyl-imidazol-1-ylmethyl)-1H-[1,2,3]triazole] — 150-fold higher, 77.4 nM
- Cc1nccn1Cc1cn(-c2ccc(F)c(C(F)F)c2)nn1 [Example 81, 1-(3-Difluoromethyl-4-fluoro-1-phenyl)-4-(2-methyl-imidazol-1-ylmethyl)-1H-[1,2,3]triazole] — 7.5-fold higher, 3.83 nM
- Fc1ccc(-n2cc(Cn3ccnc3C3CC3)nn2)cc1C(F)F [Example 82, 4-(2-Cyclopropyl-imidazol-1-ylmethyl)-1-(3-difluoromethyl-4-fluoro-phenyl)-1H-[1,2,3]triazole] — 32-fold higher, 16.2 nM
- CC(C)c1nccn1Cc1cn(-c2ccc(F)c(C(F)F)c2)nn1 [Example 84, 1-(3-Difluoromethyl-4-fluoro-phenyl)-4-(2-isopropyl-imidazol-1-ylmethyl)-1H-[1,2,3]triazole] — 22-fold higher, 11 nM
- Cc1nccn1Cc1cn(-c2ccc(Cl)c(OC(F)F)c2)nn1 [Example 93, 1-(4-Chloro-3-difluoromethoxy-phenyl)-4-(2-methyl-imidazol-1-ylmethyl)-1H-[1,2,3]triazole] — 2.4-fold higher, 1.2 nM
- OCCc1nccn1Cc1cn(-c2ccc(F)c(OC(F)F)c2)nn1 [Example 101, 1-(3-Difluoromethoxy-4-fluoro-phenyl)-4-[2-(2-hydroxy-ethyl)-imidazol-1-ylmethyl]-1H-[1,2,3]triazole] — 8.4-fold higher, 4.26 nM
- Cn1nccc1Cc1cn(-c2ccc(F)c(Cl)c2)nn1 [Example 109, 1-(3-Chloro-4-fluoro-phenyl)-4-(2-methyl-2H-pyrazol-3-ylmethyl)-1H-[1,2,3]triazole] — 8500-fold higher, 4320 nM
- Nc1nccn1Cc1cn(-c2ccc(Cl)c(C(F)F)c2)nn1 [Example 113A, 4-(2-amino-imidazol-1-ylmethyl)-1-(4-chloro-3-difluoromethyl-phenyl)-1H-[1,2,3]triazole] — within 1.5-fold, 0.65 nM
- Nc1nccn1Cc1cn(-c2ccc(F)c(C(F)F)c2)nn1 [Example 113B, 4-(2-amino-imidazol-1-ylmethyl)-1-(4-fluoro-3-difluoromethyl-phenyl)-1H-[1,2,3]triazole] — within 1.5-fold, 0.48 nM

system: Male NMRI mice; assay: Forced swim test in mice; format: in vivo; details: p.o. 30 minutes before the test
Method: The method, which detects antidepressant activity, follows that described by Porsolt et al (Arch. Int. Pharmacodyn., 229, 327-336, 1977), which is incorporated by reference herein in its entirety.
Mice forced to swim in a situation from which they cannot escape rapidly become immobile. Antidepressants decrease the duration of immobility.
Male NMRI mice (Janvier, France), weighing 20-30 g, were individually placed in a cylinder (height=24 cm; diameter=13 cm) containing 10 cm water (22° C.) from which they cannot escape.
The mice were placed in the water for 6 minutes and the duration of immobility during the last 4 minutes was measured. The latency to the first bout of immobility was also recorded starting from the beginning of the test. 10 mice were studied per group. The test substance was administered p.o. 30 minutes before the test and compared with vehicle control group. The test was performed blind.

In the case of `Fc1ccc(-n2cc(Cn3ccnc3C3CC3)nn2)cc1C(F)F` [Example 82, 4-(2-Cyclopropyl-imidazol-1-ylmethyl)-1-(3-difluoromethyl-4-fluoro-phenyl)-1H-[1,2,3]triazole], the “Minimum effective dose (mg/kg p.o.)” value is reported as 60 mg/kg.

In the case of `OCCc1nccn1Cc1cn(-c2ccc(F)c(OC(F)F)c2)nn1` [Example 101, 1-(3-Difluoromethoxy-4-fluoro-phenyl)-4-[2-(2-hydroxy-ethyl)-imidazol-1-ylmethyl]-1H-[1,2,3]triazole], the “Minimum effective dose (mg/kg p.o.)” value is reported as greater than 30 mg/kg.
